Measurements as given in PubChem BioAssay AID2060325 (Molecular Pharmacology Branch, DTP, NCI, 2025).

System: SK-OV-3 multi-cell spheroids, viability
Assay: Anticancer human tumor SK-OV-3 cell line growth inhibition [IpAb];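 for viability, T/C: viability read after seven days of drug exposure; percent of DMSO vehicle control luminescence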
Conditions: for IC50: curve of first compound; for viability, T/C: stronger effect = lower value
From the text: Combinatorial screen of targeted agents with ipatasertib and abemaciclib in multi-cell type tumor spheroids
A high-throughput screen of multi-cell type tumor spheroids was designed to identify active combinations of targeted small molecules and ipatasertib or abemaciclib. Complex spheroids include a stromal component modeled by human endothelial cells (HUVEC) and fibroblasts modeled by human mesenchymal stem cells (MSCs). The concentration ranges selected for each drug and investigational agent were based upon clinically achievable concentrations if the clinical Cmax of the agent was known.
Compounds. The drugs and investigational agents: ipatasertib (NSC767898), abemaciclib(NSC768073), selumetinib (NSC741078), trametinib (758246), adavosertib (NSC754352), everolimus (NSC733504), sapanisertib (NSC764658), vemurafenib (NSC761431), venetoclax (NSC766270), copanlisib (NSC809693), apelisib (NSC765974), palbociblib (NSC758247), vemurafenib (NSC761431), dabrafenib (NSC764134), ravoxertinib (NSC781343), BMS-387032 (NSC767048), sotorasib (NSC818433), talazoparib (NSC767125) and afursertib (NSC778305), were obtained from the National Cancer Institute (NCI) Developmental Therapeutics Program Chemical Repository. The FDA-approved anticancer drug set is available from the NCI Developmental Therapeutics Program. […] The stock solutions were prepared in dimethyl sulfoxide (DMSO, Sigma-Aldrich, St. Louis, MO, cat. D2650) at 800-fold the tested concentration and stored at -70 degrees C prior to their use. All drugs and investigational agents were tested over a range starting from a high concentration at or near the clinical Cmax and decreasing in half-log increments. If the clinical Cmax for an agent had not been determined, the highest concentration tested was 10 microM.
NCI60 Cell Culture. NCI60 cell lines were obtained from the NCI Developmental Therapeutics Program Tumor Repository. For each lot of cells, the Repository performed Applied Biosystems AmpFLSTR Identifiler testing with PCR amplification to confirm consistency with the published Identifier STR profile for each cell line. Cells were kept in continuous culture for no more than 20 passages. The optimal seeding densities for each of the cell lines at each time point assessed were determined prior to performing the concentration response studies. Briefly, the NCI60 human tumor lines were grown as monolayers in RPMI 1640 medium supplemented with 10% FBS and 2 mmol/L L-glutamine.
An additional 9 lines were from the NCI60 cell line panel including MDA-MB-231 breast carcinoma, MDA-MB-468 breast carcinoma, MCF7 breast carcinoma, Hs578T breast carcinoma, MALME-3M melanoma, SK-MEL-2 melanoma, SK-OV-3 ovarian carcinoma, DU-145 prostate carcinoma, PC-3 prostate carcinoma, all cell lines along with major genetic alterations are listed on Table 2. Pooled donor human umbilical vein endothelial cells (HUVEC, Lonza, cat. CC-2519) and human mesenchymal stem cells (hMSC, Lonza, cat. PT-2501) were purchased from Lonza (Walkersville, MD).
PDMR cell lines were grown in complete medium (DC medium): Dulbecco's modified Eagle's medium (DMEM)/F12 supplemented with 5% fetal bovine serum (FBS), 2 mM L-glutamine, 100 U/mL penicillin and 100 µg/ml streptomycin, 0.4 µg/ml hydrocortisone, 10 ng/ml epidermal growth factor (EGF) recombinant human protein, 24 µg/mL adenine, and 0.1 mg/mL primocin. During culture from frozen stock vials, PDMR cells were cultured in the same medium containing 10 µM Y-27632 (see Table 3). The PDCs were cultured in complete DMEM/F12 media without 10 microM Y-27632 dihydrochloride for at least two passages prior to the screen. The pooled donor HUVEC and hMSC were cultured in endothelial cell growth medium 2 (PromoCell, Heidelberg, Germany, cat. C-22011) and mesenchymal stem cell growth medium 2 (PromoCell, cat. C-28009), respectively. For all experiments, HUVEC and hMSC were used at passages </=5.
[…]

[1] = second compound 0.1 µM, first compound 0.0316 µM
[2] = second compound 0.1 µM, first compound 0.1 µM
[3] = second compound 0.1 µM, first compound 0.316 µM
[4] = second compound 0.1 µM, first compound 1 µM
[5] = second compound 0.1 µM, first compound 3.16 µM
[6] = second compound 0.1 µM, first compound 10 µM
[7] = second compound 0.316 µM, first compound 0.0316 µM
[8] = second compound 0.316 µM, first compound 0.1 µM
[9] = second compound 0.316 µM, first compound 0.316 µM
[10] = second compound 0.316 µM, first compound 1 µM
[11] = second compound 0.316 µM, first compound 3.16 µM
[12] = second compound 0.316 µM, first compound 10 µM
[13] = second compound 1 µM, first compound 0.0316 µM
[14] = second compound 1 µM, first compound 0.1 µM
[15] = second compound 1 µM, first compound 0.316 µM
[16] = second compound 1 µM, first compound 1 µM
[17] = second compound 1 µM, first compound 3.16 µM
[18] = second compound 1 µM, first compound 10 µM
[19] = second compound 3.16 µM, first compound 0.0316 µM
[20] = second compound 3.16 µM, first compound 0.1 µM
[21] = second compound 3.16 µM, first compound 0.316 µM
[22] = second compound 3.16 µM, first compound 1 µM
[23] = second compound 3.16 µM, first compound 3.16 µM
[24] = second compound 3.16 µM, first compound 10 µM
[25] = second compound 10 µM, first compound 0.0316 µM
[26] = second compound 10 µM, first compound 0.1 µM
[27] = second compound 10 µM, first compound 0.316 µM
[28] = second compound 10 µM, first compound 1 µM
[29] = second compound 10 µM, first compound 3.16 µM
[30] = second compound 10 µM, first compound 10 µM

SMILES | IC50 (second compound 0.1 µM) | IC50 (second compound 0.316 µM) | IC50 (second compound 1 µM) | IC50 (second compound 3.16 µM) | IC50 (second compound 10 µM) | viability, T/C [1] | viability, T/C [2] | viability, T/C [3] | viability, T/C [4] | viability, T/C [5] | viability, T/C [6] | viability, T/C [7] | viability, T/C [8] | viability, T/C [9] | viability, T/C [13] | viability, T/C [14] | viability, T/C [19] | viability, T/C [20] | viability, T/C [25] | viability, T/C [26] | other results
C=CCn1c(=O)c2cnc(Nc3ccc(N4CCN(C)CC4)cc3)nc2n1-c1cccc(C(C)(C)O)n1 + CC(C)NCC(C(=O)N1CCN(c2ncnc3c2C(C)CC3O)CC1)c1ccc(Cl)cc1 | 59.1 nM | < 31.6 nM | < 31.6 nM | < 31.6 nM | < 31.6 nM | 66.1% | 36.5% | 10% | 7.27% | 4.83% | 6.07% | 37.5% | 24.6% | 6.94% | 19.2% | 13.9% | 13.8% | 8.92% | 8.99% | 4.85% | viability, T/C [10]: 7.44%; viability, T/C [11]: 6.92%; viability, T/C [12]: 6.99%; viability, T/C [15]: 4.18%; viability, T/C [16]: 6.74%; viability, T/C [17]: 7.21%; viability, T/C [18]: 6.84%; viability, T/C [21]: 2.61%; viability, T/C [22]: 3.21%; viability, T/C [23]: 8.27%; viability, T/C [24]: 5.57%; viability, T/C [27]: 1.17%; viability, T/C [28]: 2.53%; viability, T/C [29]: 4.96%; viability, T/C [30]: 3.52%
CC(C)n1nc(-c2ccc3oc(N)nc3c2)c2c(N)ncnc21 + CC(C)NCC(C(=O)N1CCN(c2ncnc3c2C(C)CC3O)CC1)c1ccc(Cl)cc1 | 0.623 nM | < 0.316 nM | < 0.316 nM | < 0.316 nM | < 0.316 nM | 8.65% | 6.5% | – | – | – | – | 5.66% | 4.86% | – | 4.57% | 4.78% | 3.82% | 3.94% | 2.31% | 3.23% | viability, T/C (second compound 0.1 µM, first compound 0.000316 µM): 59.2%; viability, T/C (second compound 0.1 µM, first compound 0.001 µM): 43.4%; viability, T/C (second compound 0.1 µM, first compound 0.00316 µM): 26.4%; viability, T/C (second compound 0.1 µM, first compound 0.01 µM): 13.7%; viability, T/C (second compound 0.316 µM, first compound 0.000316 µM): 32%; viability, T/C (second compound 0.316 µM, first compound 0.001 µM): 24.6%; viability, T/C (second compound 0.316 µM, first compound 0.00316 µM): 19.7%; viability, T/C (second compound 0.316 µM, first compound 0.01 µM): 9.18%; viability, T/C (second compound 1 µM, first compound 0.000316 µM): 18.7%; viability, T/C (second compound 1 µM, first compound 0.001 µM): 14.1%; viability, T/C (second compound 1 µM, first compound 0.00316 µM): 12%; viability, T/C (second compound 1 µM, first compound 0.01 µM): 7.26%; viability, T/C (second compound 3.16 µM, first compound 0.000316 µM): 14.5%; viability, T/C (second compound 3.16 µM, first compound 0.001 µM): 12.7%; viability, T/C (second compound 3.16 µM, first compound 0.00316 µM): 9.97%; viability, T/C (second compound 3.16 µM, first compound 0.01 µM): 5.51%; viability, T/C (second compound 10 µM, first compound 0.000316 µM): 8.69%; viability, T/C (second compound 10 µM, first compound 0.001 µM): 9.03%; viability, T/C (second compound 10 µM, first compound 0.00316 µM): 6.95%; viability, T/C (second compound 10 µM, first compound 0.01 µM): 3.56%
CC1(C)CCC(CN2CCN(c3ccc(C(=O)NS(=O)(=O)c4ccc(NCC5CCOCC5)c([N+](=O)[O-])c4)c(Oc4cnc5[nH]ccc5c4)c3)CC2)=C(c2ccc(Cl)cc2)C1 + CC(C)NCC(C(=O)N1CCN(c2ncnc3c2C(C)CC3O)CC1)c1ccc(Cl)cc1 | 3200 nM | < 31.6 nM | < 31.6 nM | < 31.6 nM | < 31.6 nM | 64.3% | 70.6% | 68% | 58.6% | 51.2% | 26.1% | 33.6% | 38.2% | 31.7% | 21.1% | 27.3% | 15.5% | 15.3% | 7.25% | 9.06% | viability, T/C [10]: 31.6%; viability, T/C [11]: 28%; viability, T/C [12]: 18.6%; viability, T/C [15]: 21.6%; viability, T/C [16]: 18.9%; viability, T/C [17]: 17%; viability, T/C [18]: 13.7%; viability, T/C [21]: 14.2%; viability, T/C [22]: 13.9%; viability, T/C [23]: 11.1%; viability, T/C [24]: 7.06%; viability, T/C [27]: 8.25%; viability, T/C [28]: 6.89%; viability, T/C [29]: 5.18%; viability, T/C [30]: 4.58%
CCCS(=O)(=O)Nc1ccc(F)c(C(=O)c2c[nH]c3ncc(-c4ccc(Cl)cc4)cc23)c1F + CC(C)NCC(C(=O)N1CCN(c2ncnc3c2C(C)CC3O)CC1)c1ccc(Cl)cc1 | 4770 nM | < 31.6 nM | < 31.6 nM | < 31.6 nM | < 31.6 nM | 70.2% | 74.1% | 67.5% | 73.9% | 64.3% | 23.3% | 38.8% | 36.5% | 38.1% | 20.5% | 22.4% | 17.1% | 18.6% | 8.73% | 9.5% | viability, T/C [10]: 36.1%; viability, T/C [11]: 28.2%; viability, T/C [12]: 13.9%; viability, T/C [15]: 21.3%; viability, T/C [16]: 17.9%; viability, T/C [17]: 15.3%; viability, T/C [18]: 6.91%; viability, T/C [21]: 15.7%; viability, T/C [22]: 15.7%; viability, T/C [23]: 15.1%; viability, T/C [24]: 6.79%; viability, T/C [27]: 9.69%; viability, T/C [28]: 8.84%; viability, T/C [29]: 9.71%; viability, T/C [30]: 2.52%
